Measured values: patent publication US9682995B2, “Amino-substituted isothiazoles” (BAYER PHARMA AKTIENGESELLSCHAFT, priority 2013, dated 2017)

What was measured:
Test in all cases: Kinase Profiling (KINOMEscan)
Format in all cases: binding
[1] = molecular target: 456 kinases (of these 395 non-mutant kinases) (Homo sapiens, UniProt P43405); settings: SYK; 10 μM
[2] = molecular target: 456 kinases (of these 395 non-mutant kinases) (Homo sapiens, UniProt Q92772); settings: CDKL2; 10 μM
[3] = molecular target: 456 kinases (of these 395 non-mutant kinases) (Homo sapiens, UniProt P12931); settings: SRC; 10 μM
Chain of 456 kinases (of these 395 non-mutant kinases) (Homo sapiens, UniProt P12931) (P12931 2-536 limits assumed, stated change not applied): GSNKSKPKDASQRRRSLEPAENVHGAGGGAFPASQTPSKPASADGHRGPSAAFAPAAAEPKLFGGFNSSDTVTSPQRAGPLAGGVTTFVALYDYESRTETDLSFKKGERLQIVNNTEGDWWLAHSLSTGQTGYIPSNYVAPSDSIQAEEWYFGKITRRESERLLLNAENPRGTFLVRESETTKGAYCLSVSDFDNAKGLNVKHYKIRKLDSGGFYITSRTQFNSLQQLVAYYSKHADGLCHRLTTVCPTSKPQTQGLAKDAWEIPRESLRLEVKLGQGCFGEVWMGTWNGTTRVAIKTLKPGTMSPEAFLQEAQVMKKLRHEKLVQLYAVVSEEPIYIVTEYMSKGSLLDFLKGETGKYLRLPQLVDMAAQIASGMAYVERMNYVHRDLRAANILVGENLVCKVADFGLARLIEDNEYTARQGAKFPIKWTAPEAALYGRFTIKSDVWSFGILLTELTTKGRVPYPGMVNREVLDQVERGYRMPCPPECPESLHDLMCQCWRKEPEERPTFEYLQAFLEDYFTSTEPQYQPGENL

[4] = molecular target: 456 kinases (of these 395 non-mutant kinases) (Homo sapiens, UniProt P00519, Q252H); settings: 10 μM
[5] = molecular target: 456 kinases (of these 395 non-mutant kinases) (Homo sapiens, UniProt Q9BYP7); settings: WNK3; 10 μM
[6] = molecular target: 456 kinases (of these 395 non-mutant kinases) (Homo sapiens, UniProt O14965); settings: AURKA; 10 μM
[7] = molecular target: 456 kinases (of these 395 non-mutant kinases) (Homo sapiens, UniProt Q9H2X6); settings: HIPK2; 10 μM
[8] = molecular target: 456 kinases (of these 395 non-mutant kinases) (Homo sapiens, UniProt P23458); settings: 10 μM
[9] = molecular target: 456 kinases (of these 395 non-mutant kinases) (Homo sapiens, UniProt P49841); settings: GSK3B; 10 μM
[10] = molecular target: 456 kinases (of these 395 non-mutant kinases) (Homo sapiens, UniProt P50613); settings: CDK7; 10 μM
Chain of 456 kinases (of these 395 non-mutant kinases) (Homo sapiens, UniProt P50613) (P50613 2-346 limits assumed, change not shown): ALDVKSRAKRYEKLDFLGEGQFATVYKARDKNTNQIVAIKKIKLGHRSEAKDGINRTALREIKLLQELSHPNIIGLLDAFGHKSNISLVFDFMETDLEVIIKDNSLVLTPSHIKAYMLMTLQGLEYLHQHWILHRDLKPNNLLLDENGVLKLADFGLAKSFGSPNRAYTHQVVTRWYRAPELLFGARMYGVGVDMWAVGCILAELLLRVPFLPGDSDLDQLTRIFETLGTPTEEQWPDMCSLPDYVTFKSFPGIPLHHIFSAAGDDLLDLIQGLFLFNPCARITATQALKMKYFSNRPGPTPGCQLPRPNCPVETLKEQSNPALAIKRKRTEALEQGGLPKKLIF

[11] = molecular target: 456 kinases (of these 395 non-mutant kinases) (Homo sapiens, UniProt P04629); settings: TRKA; 10 μM
Chain of 456 kinases (of these 395 non-mutant kinases) (Homo sapiens, UniProt P04629) (P04629 33-796 limits assumed, change not shown): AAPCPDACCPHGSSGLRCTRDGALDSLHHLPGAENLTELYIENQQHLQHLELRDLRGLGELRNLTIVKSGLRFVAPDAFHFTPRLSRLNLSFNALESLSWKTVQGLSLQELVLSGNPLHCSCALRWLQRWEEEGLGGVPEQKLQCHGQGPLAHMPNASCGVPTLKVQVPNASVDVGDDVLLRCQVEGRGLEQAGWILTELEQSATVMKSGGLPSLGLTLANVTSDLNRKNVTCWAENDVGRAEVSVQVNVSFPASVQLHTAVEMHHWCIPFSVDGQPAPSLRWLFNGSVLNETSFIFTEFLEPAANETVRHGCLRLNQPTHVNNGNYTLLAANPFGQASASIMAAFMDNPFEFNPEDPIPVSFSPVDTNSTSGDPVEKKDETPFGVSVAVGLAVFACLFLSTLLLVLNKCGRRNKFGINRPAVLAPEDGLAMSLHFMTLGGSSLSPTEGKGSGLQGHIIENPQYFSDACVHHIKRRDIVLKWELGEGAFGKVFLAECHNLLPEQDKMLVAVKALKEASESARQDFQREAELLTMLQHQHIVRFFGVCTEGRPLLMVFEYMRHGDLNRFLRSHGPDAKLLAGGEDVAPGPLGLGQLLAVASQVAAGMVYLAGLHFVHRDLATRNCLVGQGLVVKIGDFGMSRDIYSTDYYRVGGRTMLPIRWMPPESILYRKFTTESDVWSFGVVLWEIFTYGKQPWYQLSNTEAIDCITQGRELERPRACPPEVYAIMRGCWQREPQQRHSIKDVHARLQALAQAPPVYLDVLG

[12] = molecular target: 456 kinases (of these 395 non-mutant kinases) (Homo sapiens, UniProt Q9Y2H9); settings: MAST1; 10 μM
[13] = molecular target: 456 kinases (of these 395 non-mutant kinases) (Homo sapiens, UniProt P32298); settings: GRK4; 10 μM
[14] = molecular target: 456 kinases (of these 395 non-mutant kinases) (Homo sapiens, UniProt Q9Y2H1); settings: NDR2; 10 μM
Chain of 456 kinases (of these 395 non-mutant kinases) (Homo sapiens, UniProt Q9Y2H1) (Q9Y2H1 2-464 limits assumed, change not shown): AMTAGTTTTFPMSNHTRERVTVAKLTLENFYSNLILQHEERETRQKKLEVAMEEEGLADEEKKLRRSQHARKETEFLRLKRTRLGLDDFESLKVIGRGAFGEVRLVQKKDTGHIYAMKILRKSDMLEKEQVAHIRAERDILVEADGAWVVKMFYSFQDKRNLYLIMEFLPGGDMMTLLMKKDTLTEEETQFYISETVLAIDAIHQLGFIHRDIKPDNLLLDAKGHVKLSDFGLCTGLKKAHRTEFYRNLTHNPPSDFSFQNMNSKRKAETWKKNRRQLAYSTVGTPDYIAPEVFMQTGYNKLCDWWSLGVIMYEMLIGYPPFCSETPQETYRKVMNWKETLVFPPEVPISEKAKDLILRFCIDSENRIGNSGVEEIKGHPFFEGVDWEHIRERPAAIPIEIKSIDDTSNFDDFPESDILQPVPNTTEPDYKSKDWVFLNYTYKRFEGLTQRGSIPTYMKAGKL

[15] = molecular target: 456 kinases (of these 395 non-mutant kinases) (Homo sapiens, UniProt O75747); settings: PIK3C2G; 10 μM
[16] = molecular target: 456 kinases (of these 395 non-mutant kinases) (Homo sapiens, UniProt P22455); settings: FGFR4; 10 μM
Chain of 456 kinases (of these 395 non-mutant kinases) (Homo sapiens, UniProt P22455) (P22455 22-802 limits assumed, change not shown): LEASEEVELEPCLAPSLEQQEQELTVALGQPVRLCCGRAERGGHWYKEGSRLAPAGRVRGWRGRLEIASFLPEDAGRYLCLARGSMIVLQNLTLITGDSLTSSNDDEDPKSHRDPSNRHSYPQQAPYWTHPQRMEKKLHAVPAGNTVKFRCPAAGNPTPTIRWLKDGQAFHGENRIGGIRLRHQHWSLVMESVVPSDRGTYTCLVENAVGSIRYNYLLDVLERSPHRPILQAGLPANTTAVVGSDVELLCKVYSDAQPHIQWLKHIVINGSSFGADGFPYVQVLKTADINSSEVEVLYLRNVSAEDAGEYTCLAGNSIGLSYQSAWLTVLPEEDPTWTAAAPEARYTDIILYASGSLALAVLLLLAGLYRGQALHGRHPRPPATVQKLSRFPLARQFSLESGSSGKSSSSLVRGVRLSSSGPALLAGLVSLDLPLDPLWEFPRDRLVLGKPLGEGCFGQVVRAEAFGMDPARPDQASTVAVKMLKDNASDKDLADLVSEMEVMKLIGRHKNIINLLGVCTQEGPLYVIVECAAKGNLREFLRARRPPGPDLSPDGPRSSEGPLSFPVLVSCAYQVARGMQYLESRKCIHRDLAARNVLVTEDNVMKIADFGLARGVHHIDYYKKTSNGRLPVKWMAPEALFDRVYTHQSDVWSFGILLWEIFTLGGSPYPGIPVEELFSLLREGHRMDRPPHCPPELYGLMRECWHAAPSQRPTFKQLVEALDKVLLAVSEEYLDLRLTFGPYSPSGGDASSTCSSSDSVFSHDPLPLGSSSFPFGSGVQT

[17] = molecular target: 456 kinases (of these 395 non-mutant kinases) (Homo sapiens, UniProt Q9Y6R4); settings: MAP3K4; 10 μM
[18] = molecular target: 456 kinases (of these 395 non-mutant kinases) (Homo sapiens, UniProt P42338); settings: PIK3CB; 10 μM
[19] = molecular target: 456 kinases (of these 395 non-mutant kinases) (Homo sapiens, UniProt Q8TDC3); settings: BRSK1; 10 μM
[20] = molecular target: 456 kinases (of these 395 non-mutant kinases) (Homo sapiens, UniProt P45985); settings: MEK4; 10 μM
Chain of 456 kinases (of these 395 non-mutant kinases) (Homo sapiens, UniProt P45985) (P45985 2-399 limits assumed, change not shown): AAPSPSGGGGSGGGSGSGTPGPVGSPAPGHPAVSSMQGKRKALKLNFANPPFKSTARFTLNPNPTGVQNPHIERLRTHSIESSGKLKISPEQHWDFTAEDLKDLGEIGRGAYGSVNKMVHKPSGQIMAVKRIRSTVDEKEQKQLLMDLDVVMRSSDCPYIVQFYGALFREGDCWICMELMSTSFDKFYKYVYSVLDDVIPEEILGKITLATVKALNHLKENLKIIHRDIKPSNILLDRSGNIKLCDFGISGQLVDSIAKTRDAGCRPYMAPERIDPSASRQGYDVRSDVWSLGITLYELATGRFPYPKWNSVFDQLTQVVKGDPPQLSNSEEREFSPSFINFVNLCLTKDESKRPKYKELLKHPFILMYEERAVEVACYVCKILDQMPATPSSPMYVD

[21] = molecular target: 456 kinases (of these 395 non-mutant kinases) (Homo sapiens, UniProt Q8N752); settings: CSNK1A1L; 10 μM
[22] = molecular target: 456 kinases (of these 395 non-mutant kinases) (Homo sapiens, UniProt Q8TF76); settings: HASPIN; 10 μM
[23] = molecular target: 456 kinases (of these 395 non-mutant kinases) (Homo sapiens, UniProt O15530); settings: PDPK1; 10 μM
[24] = molecular target: 456 kinases (of these 395 non-mutant kinases) (Homo sapiens, UniProt Q13163); settings: MEK5; 10 μM
[25] = molecular target: 456 kinases (of these 395 non-mutant kinases) (Homo sapiens, UniProt P51451); settings: BLK; 10 μM
Chain of 456 kinases (of these 395 non-mutant kinases) (Homo sapiens, UniProt P51451) (P51451 2-505 limits assumed, change not shown): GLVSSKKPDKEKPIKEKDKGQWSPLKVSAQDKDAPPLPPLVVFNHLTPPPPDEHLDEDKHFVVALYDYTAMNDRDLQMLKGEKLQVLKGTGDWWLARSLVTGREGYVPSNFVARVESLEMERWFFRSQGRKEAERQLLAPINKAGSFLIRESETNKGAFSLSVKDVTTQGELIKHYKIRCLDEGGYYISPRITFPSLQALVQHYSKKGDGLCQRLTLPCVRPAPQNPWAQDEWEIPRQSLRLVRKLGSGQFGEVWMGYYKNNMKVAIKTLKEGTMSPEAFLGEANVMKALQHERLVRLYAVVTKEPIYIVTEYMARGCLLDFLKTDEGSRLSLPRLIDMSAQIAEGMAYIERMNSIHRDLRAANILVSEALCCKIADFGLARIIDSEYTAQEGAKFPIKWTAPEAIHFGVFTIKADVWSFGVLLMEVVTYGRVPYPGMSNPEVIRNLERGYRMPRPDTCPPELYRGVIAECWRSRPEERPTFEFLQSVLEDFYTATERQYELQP

[26] = molecular target: 456 kinases (of these 395 non-mutant kinases) (Homo sapiens, UniProt Q9Y616); settings: IRAK3; 10 μM
[27] = molecular target: 456 kinases (of these 395 non-mutant kinases) (Homo sapiens, UniProt Q9NRM7); settings: LATS2; 10 μM
[28] = molecular target: 456 kinases (of these 395 non-mutant kinases) (Homo sapiens, UniProt P36888, N841I); settings: FLT3(N841I); 10 μM
[29] = molecular target: 456 kinases (of these 395 non-mutant kinases) (Homo sapiens, UniProt P54762); settings: EPHB1; 10 μM
Chain of 456 kinases (of these 395 non-mutant kinases) (Homo sapiens, UniProt P54762) (P54762 18-984 limits assumed, stated change not applied): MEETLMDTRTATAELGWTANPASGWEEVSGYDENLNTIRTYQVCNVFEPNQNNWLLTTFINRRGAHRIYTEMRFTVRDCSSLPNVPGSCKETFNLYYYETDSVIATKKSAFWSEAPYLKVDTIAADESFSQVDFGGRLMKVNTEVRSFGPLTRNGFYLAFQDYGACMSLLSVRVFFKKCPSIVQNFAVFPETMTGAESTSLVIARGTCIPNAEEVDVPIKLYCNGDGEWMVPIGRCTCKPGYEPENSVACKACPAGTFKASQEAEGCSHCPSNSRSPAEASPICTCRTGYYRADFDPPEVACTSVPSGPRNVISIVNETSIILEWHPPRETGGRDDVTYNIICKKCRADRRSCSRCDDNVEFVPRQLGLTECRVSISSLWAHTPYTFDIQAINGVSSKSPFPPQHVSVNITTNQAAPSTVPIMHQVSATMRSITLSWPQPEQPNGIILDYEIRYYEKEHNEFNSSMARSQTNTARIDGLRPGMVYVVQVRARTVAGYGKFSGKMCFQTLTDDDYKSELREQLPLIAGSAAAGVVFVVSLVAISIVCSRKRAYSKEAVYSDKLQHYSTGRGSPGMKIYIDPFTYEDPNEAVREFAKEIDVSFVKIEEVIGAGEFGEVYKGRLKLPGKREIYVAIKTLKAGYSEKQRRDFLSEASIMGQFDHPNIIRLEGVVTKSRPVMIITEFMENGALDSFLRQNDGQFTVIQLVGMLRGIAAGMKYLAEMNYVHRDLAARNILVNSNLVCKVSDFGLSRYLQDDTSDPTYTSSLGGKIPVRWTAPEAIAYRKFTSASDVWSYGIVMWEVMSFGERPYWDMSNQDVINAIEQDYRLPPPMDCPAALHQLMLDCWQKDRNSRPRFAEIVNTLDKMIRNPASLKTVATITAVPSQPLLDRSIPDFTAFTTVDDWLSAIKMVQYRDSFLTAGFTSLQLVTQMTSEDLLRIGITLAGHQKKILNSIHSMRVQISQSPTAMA

[30] = molecular target: 456 kinases (of these 395 non-mutant kinases) (Homo sapiens, UniProt P00533, G719S); settings: EGFR(G719S); 10 μM
[31] = molecular target: 456 kinases (of these 395 non-mutant kinases) (Homo sapiens, UniProt Q96PY6); settings: NEK1; 10 μM
[32] = molecular target: 456 kinases (of these 395 non-mutant kinases) (Homo sapiens, UniProt Q9UL54); settings: TAOK2; 10 μM

CCc1ccccc1NC(=O)c1c(C)nsc1Nc1cnc2cc(F)ccc2n1 [Example 20, N-(2-Ethylphenyl)-5-[(6-fluoroquinoxalin-2-yl)amino]-3-methyl-1,2-thiazole-4-carboxamide]
% Ctrl @ 10 μM [1]: 90 % Ctrl
% Ctrl @ 10 μM [2]: 100 % Ctrl
% Ctrl @ 10 μM [3]: 100 % Ctrl
% Ctrl @ 10 μM ([4]; ABL1(Q252H)-nonphosphorylated): 100 % Ctrl
% Ctrl @ 10 μM ([4]; ABL1(Q252H)-phosphorylated): 100 % Ctrl
% Ctrl @ 10 μM [5]: 100 % Ctrl
% Ctrl @ 10 μM [6]: 100 % Ctrl
% Ctrl @ 10 μM [7]: 100 % Ctrl
% Ctrl @ 10 μM ([8]; JAK1(JH1domain-catalytic)): 100 % Ctrl
% Ctrl @ 10 μM ([8]; JAK1(JH2domain-pseudokinase)): 71 % Ctrl
% Ctrl @ 10 μM [9]: 100 % Ctrl
% Ctrl @ 10 μM [10]: 92 % Ctrl
% Ctrl @ 10 μM [11]: 100 % Ctrl
% Ctrl @ 10 μM [12]: 67 % Ctrl
% Ctrl @ 10 μM [13]: 77 % Ctrl
% Ctrl @ 10 μM [14]: 75 % Ctrl
% Ctrl @ 10 μM [15]: 86 % Ctrl
% Ctrl @ 10 μM [16]: 77 % Ctrl
% Ctrl @ 10 μM [17]: 84 % Ctrl
% Ctrl @ 10 μM [18]: 83 % Ctrl
% Ctrl @ 10 μM [19]: 90 % Ctrl
% Ctrl @ 10 μM [20]: 67 % Ctrl
% Ctrl @ 10 μM [21]: 100 % Ctrl
% Ctrl @ 10 μM [22]: 100 % Ctrl
% Ctrl @ 10 μM [23]: 86 % Ctrl
% Ctrl @ 10 μM [24]: 100 % Ctrl
% Ctrl @ 10 μM [25]: 100 % Ctrl
% Ctrl @ 10 μM [26]: 100 % Ctrl
% Ctrl @ 10 μM [27]: 94 % Ctrl
% Ctrl @ 10 μM [28]: 84 % Ctrl
% Ctrl @ 10 μM [29]: 96 % Ctrl
% Ctrl @ 10 μM [30]: 97 % Ctrl
% Ctrl @ 10 μM [31]: 100 % Ctrl
% Ctrl @ 10 μM [32]: 100 % Ctrl
